Consider twelve compounds from patent US20220267329A1, “Dihydro-Spiro[Indoline-3:1'-Isoquinolin]-2-Ones and Their Analogues and Derivatives and Methods of Treating Cancer and Other Diseases” (The University of Buea, priority 2019, published 2022).

As usually defined, the inhibition is the relative decrease from the control value, in per cent. In general, melting point refers to the temperature of the solid-liquid transition.

Data set [1] concerns the target sphingosine-1-phosphate receptor 1 (S1PR1) (Homo sapiens, UniProt P21453). Kind of data set: Radioligand binding to sphingosine-1-phosphate receptor 1. The note with it: test compound 100 nM, 0.2 nM radioligand; read-out: % INHIBITION of binding to the SIP1 Receptor. The procedure:
The binding of a representative group of compounds of this invention to sphingosine-1-phosphate receptor 1 (S1PR1) was determined by a published procedure (Rosenberg et al., 2016). In this assay, the test compound at 100 nM concentration was incubated with 0.2 nM radioligand. Active compounds or “hits” are defined as compounds that inhibit radioligand binding by 50% or more. […] This finding is significant because it establishes the 3′,4′-dihydro-2′H-[…]-2-one hybrid scaffold as an entirely new class of ligands for the sphingosine-1-phosphate receptors.

Data set [2] concerns renal cancer cell lines. Kind of data set: NCI-60 screen, renal cell lines. The format is cell-based, human. The following applies: NCI-60 preliminary screening; for inhibition at 10 µM: Homo sapiens, read-out: Percent (%) Inhibition of Cancer Cell Line, Renal Cell. On the procedure: (§1) Screening for Anticancer Activity—The NCI-60 panel: Representative compounds of the invention were subjected to anticancer testing in the National Cancer Institute (NCI) 60 screen. In this screen compounds are tested on a panel of sixty human cancer cell lines chosen from the following cancers: leukemia, nonsmall cell lung cancer (NSCLC), colon, melanoma, central nervous system (CNS), ovarian, renal, prostate and breast. The assay method is found on the NCI website (dtp.cancer.gov/discovery_development/nci-60/methodology.htm). In the NCI-60 assay, test compounds undergo preliminary screening at 10 μM concentration. The data is reported as percent growth relative to “no drug” control; therefore values between 0 and 100% denote growth inhibition.

Data set [3] concerns central nervous system (CNS) cancer cell lines. Put plainly: NCI-60 screen, CNS cell lines. The format is cell-based. The following applies: Homo sapiens, NCI-60 preliminary screening, read-out: Percent (%) Inhibition of Cancer Cell Line, CNS. On the procedure:
as §1

In data set [4] the test system is EMT6 breast cancer cell line. Put plainly: Antiproliferative screening on EMT6 cancer cells. The format is cell-based. The following applies: for activity at 100 µM: Mus musculus, EMT6, no ligand = 100, read-out: EMT6 cell proliferation (%). On the procedure: Representative compounds were screened tested for antiproliferative activity on the EMT6 breast cancer cell line. Screening was carried out according to published procedures (Zeng et al., 2014). In this screen, compounds were tested at 100 μM concentration.

Data set [5] relates to leukemia cell lines. Kind of data set: NCI-60 screen, leukemia cell lines. The format is cell-based. The following applies: Homo sapiens, NCI-60 preliminary screening, read-out: Percent (%) Inhibition of Cancer Cell Line, Leukemia. On the procedure:
as §1

For data set [6], the system named is ovarian cancer cell lines. Put plainly: NCI-60 screen, ovarian cell lines. The format is cell-based, human. The following applies: NCI-60 preliminary screening; for inhibition at 10 µM: Homo sapiens, read-out: Percent (%) Inhibition of Cancer Cell Line, Ovarian. The procedure:
as §1

The test system of data set [7] is nonsmall cell lung cancer (NSCLC) cell lines. Kind of data set: NCI-60 screen, NSCLC cell lines. The format is cell-based, human. The following applies: NCI-60 preliminary screening; for inhibition at 10 µM: Homo sapiens, read-out: Percent (%) Inhibition of Cancer Cell Line, NSCLC. The procedure:
as §1

Data set [8] concerns breast cancer cell lines. Put plainly: NCI-60 screen, breast cell lines. The format is cell-based, human. The following applies: NCI-60 preliminary screening; for inhibition at 10 µM: Homo sapiens, read-out: Percent (%) Inhibition of Cancer Cell Line, Breast. The procedure:
as §1

Data set [9] has as its system prostate cancer cell lines. Put plainly: NCI-60 screen, prostate cell lines. The following applies: NCI-60 preliminary screening; for inhibition at 10 µM: Homo sapiens, Prostate cell, read-out: Percent (%) Inhibition of Cancer Cell Line, Prostate. The format is cell-based, human. The procedure:
as §1

For data set [10], the system named is panel of sixty human cancer cell lines. Kind of data set: NCI-60 screen, whole panel. The format is cell-based. The note with it: 10 μM. The procedure:
as §1

The test system of data set [11] is melanoma cell lines. Put plainly: NCI-60 screen, melanoma cell lines. The format is cell-based. The following applies: Homo sapiens, NCI-60 preliminary screening, read-out: Percent (%) Inhibition of Cancer Cell Line, Melanoma. The procedure:
as §1

Chain of sphingosine-1-phosphate receptor 1 (S1PR1) (P21453 whole entry, species assumed): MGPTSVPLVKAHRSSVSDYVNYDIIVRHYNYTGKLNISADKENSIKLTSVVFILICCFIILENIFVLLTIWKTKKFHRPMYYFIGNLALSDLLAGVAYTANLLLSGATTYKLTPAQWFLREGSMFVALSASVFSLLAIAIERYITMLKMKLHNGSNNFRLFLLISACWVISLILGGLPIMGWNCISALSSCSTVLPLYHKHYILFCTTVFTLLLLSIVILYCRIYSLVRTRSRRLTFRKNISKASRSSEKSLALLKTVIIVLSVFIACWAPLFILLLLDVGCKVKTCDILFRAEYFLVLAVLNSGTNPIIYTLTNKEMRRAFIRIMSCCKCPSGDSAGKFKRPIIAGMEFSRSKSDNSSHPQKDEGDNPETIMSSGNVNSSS

As for `COc1ccc2c(c1)CCNC21C(=O)Nc2ccccc21` (centres unmarked) [Compound 4a, 6′-Methoxy-3′,4′-dihydro-2′H-spiro[indoline-3,1′-isoquinolin]-2-one], the inhibition at 0.1 µM in [1] was 36.2%. In addition, the inhibition at 10 µM in data set [2] and in data set [3] was 20% each time.
On to `O=C1N(Cc2ccc(F)cc2)c2ccccc2C12NCCc1cccc(O)c12` (centres unmarked) [Compound 1d, 1-(4-Fluorobenzyl)-8′-hydroxy-3′,4′-dihydro-2H-spiro[indoline-3,1′-isoquinolin]-2-one], for which the melting point lay within 119 to 121 °C. Besides, in data set [1], the inhibition at 0.1 µM is at least 50%. Also, in [4], the activity at 100 µM worked out at 120%.
Consider `COc1cc2c(cc1OC)C1(NCC2)C(=O)Nc2c(Br)cc(Br)cc21` (centres unmarked) [Compound 5c, 5,7-dibromo-6′,7′-dimethoxy-3′,4′-dihydro-2′H-spiro[indoline-3,1′-isoquinolin]-2-one], for which the inhibition at 0.1 µM in data set [1] turned out to be 37.6%. For the same compound, the values for the inhibition at 10 µM in [2], in data set [3] and in data set [5] were 27 to 35%, 25% and 24%, respectively.
On to `COc1cc2c(cc1OC)C1(NCC2)C(=O)Nc2ccc(Cl)cc21` (centres unmarked) [Compound 5b, 5-Chloro-6′,7′-dimethoxy-3′,4′-dihydro-2′H-spiro[indoline-3,1′-isoquinolin]-2-one], for which, in data set [1], the inhibition at 0.1 µM was at least 50%. The inhibition at 10 µM in data set [2] was found to be 22%; in [3] it was 32%.
As to `O=C1Nc2ccccc2C12NCCc1cccc(O)c12` (centres unmarked) [Compound 1a, 8′-Hydroxy-3′,4′-dihydro-2′H-spiro[indoline-3,1′-isoquinolin]-2-one], the inhibition at 10 µM came out at 14% in data set [2], 10% in data set [6] and 15% in [7]. For the same compound, the activity at 100 µM in data set [4] stood at 104%.
Turning to `O=C1N(Cc2ccc(Cl)cc2)c2ccccc2C12NCCc1cccc(O)c12` (centres unmarked) [Compound 1e, 1-(4-Chlorobenzyl)-8′-hydroxy-3′,4°-dihydro-2′H-spiro[indoline-3,1′-isoquinolin]-2-one], in data set [2] (10 μM), the “Percent (%) Inhibition of Cancer Cell Line, Renal Cell” value came to 35%. In addition, the “EMT6 cell proliferation (%)” value in data set [4] (100 μM, no ligand = 100) was found to be 77.91%. The “Percent (%) Inhibition of Cancer Cell Line, Ovarian” value in data set [6] (10 μM) was found to be 14%. In addition, in data set [8] (10 μM), the “Percent (%) Inhibition of Cancer Cell Line, Breast” value was 12%. In addition, the “Percent (%) Inhibition of Cancer Cell Line, NSCLC” value in data set [7] (10 μM) is recorded as 30%. Moreover, in data set [9] (10 μM), the “Percent (%) Inhibition of Cancer Cell Line, Prostate” value stood at 14%.
As for `COc1cc2c(cc1OC)C1(NCC2)C(=O)N(Cc2ccc(Br)cc2)c2ccc(Cl)cc21` (centres unmarked) [Compound 5f, 1-(4-Bromobenzyl)-5-chloro-6′,7′-dimethoxy-3′,4′-dihydro-2′H-spiro[indoline-3,1′-isoquinolin]-2-one], the “antiproliferative activity in the NCI-60 panel” value (from here on “antiproliferative activity”) in data set [10] is “most potent analogues”. For the same compound, the inhibition at 10 µM in [6] is 39%; in data set [5], 38 to 55%; in data set [11], 44%; in [8] it was 27 to 36%; in data set [9] it was 52%.
On to `COc1cc2c(cc1OC)C1(NCC2)C(=O)N(Cc2ccc(C)cc2)c2ccccc21` (centres unmarked) [Compound 5e, 6′,7′-Dimethoxy-1-(4-methylbenzyl)-3′,4′-dihydro-2′H-spiro[indoline-3,1′-isoquinolin]-2-one], for which, in [10], the “antiproliferative activity” value is recorded as “most potent analogues”. The inhibition at 0.1 µM in data set [1] was 32.4%. Moreover, the inhibition at 10 µM in data set [2] was 25%; in data set [5] it was 24 to 48%; in data set [8] it was 22 to 24%; in data set [9], 42%.
Turning to `COc1cc2c(c(OC)c1OC)C1(NCC2)C(=O)Nc2ccc(Cl)cc21` (centres unmarked) [Compound 6b, 5-Chloro-6′,7′,8′-trimethoxy-3′,4′-dihydro-2′H-spiro[indoline-3,1′-isoquinolin]-2-one], the inhibition at 0.1 µM in data set [1] came to 41.1%. Besides, the values for the inhibition at 10 µM in data set [2], in data set [6] and in data set [7] were 28 to 31%, 20% and 20%, respectively.
Turning to `O=C1N(Cc2ccc(Cl)c(Cl)c2)c2ccccc2C12NCCc1cccc(O)c12` (centres unmarked) [Compound 1g, 1-(3,4-Dichlorobenzyl)-8′-hydroxy-3′,4′-dihydro-2′H-spiro[indoline-3,1′-isoquinolin]-2-one], the melting point was in the range of 109 to 113 °C. The activity at 100 µM in [4] came to 91.1%.
Regarding `COc1ccc2c(c1)CCNC21C(=O)N(Cc2ccc(C)cc2)c2ccccc21` (centres unmarked) [Compound 4e, 6′-Methoxy-1-(4-methylbenzyl)-3′,4′-dihydro-2′H-spiro[indoline-3,1′-isoquinolin]-2-one], in data set [10], the “antiproliferative activity” value is reported as “most potent analogues”. Besides, the inhibition at 0.1 µM in data set [1] stood at 38.1%. In addition, the figures for the inhibition at 10 µM in data set [2], in data set [8] and in [7] were 30 to 46%, 25 to 30% and 25 to 28%, respectively.
As to `O=C1N(Cc2ccc(Cl)c(Cl)c2)c2ccccc2C12NCCc1cc(O)ccc12` (centres unmarked) [Compound 2g, 1-(3,4-Dichlorobenzyl)-6′-hydroxy-3′,4′-dihydro-2′H-spiro[indoline-3,1′-isoquinolin]-2-one], the inhibition at 10 µM in [2] was 22 to 36%; in [5] it was 19%; in data set [8], 13%; in [7] it was 25%; in data set [9], 19%. Further, the “inhibition of EMT6 cell proliferation” value in data set [4] (100 μM) is given as “as much as fifty percent”. In data set [4], the activity at 100 µM came to 56.5%.
